Assay results published in patent US10294202B2, “Pyrrolidinones as herbicides” (FMC Corporation, priority 2013, dated 2019).

Columns and labels:
sedge, umbrella = assay: Test C flooded paddy test; type: in vivo, Cyperus difformis; details: Flood
Summary of the method: (§1)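 Plants at the 2-leaf stage in pots flooded to 3 cm were treated by applying compound directly to the paddy water, with depth held throughout. After 13 to 15 days in a greenhouse, response was rated visually against controls on a 0 (no effect) to 100 (complete control) scale.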

barnyardgrass = assay: Test C flooded paddy test; type: in vivo, Echinochloa crus-galli; details: Flood
Summary of the method: as §1

kochia [1] = assay: Test C pre-/postemergence herbicide test; type: in vivo, Kochia scoparia
From the text: Seeds of plant species selected from blackgrass (Alopecurus myosuroides), ryegrass, Italian (Italian ryegrass, Lolium multiflorum), wheat (winter wheat, Triticum aestivum), galium (catchweed bedstraw, Galium aparine), corn (Zea mays), crabgrass, large (large crabgrass, Digitaria sanguinalis), foxtail, giant (giant foxtail, Setaria faberii), johnsongrass (Sorghum halepense), lambsquarters (Chenopodium album), morningglory (Ipomoea coccinea), nutsedge, yellow (yellow nutsedge, Cyperus esculentus), pigweed (Amaranthus retroflexus), ragweed (common ragweed, Ambrosia elatior), soybean (Glycine max), barnyardgrass (Echinochloa crus-galli), oilseed rape (Brassica napus), waterhemp (common waterhemp, Amaranthus rudis), kochia (Kochia scoparia), oat, wild (wild oat, Avena fatua), surinam grass (Brachiaria decumbens), foxtail, green (green foxtail, Setaria viridis), goosegrass (Eleusine indica), bromegrass, downy (downy bromegrass, Bromus tectorum), nightshade (eastern black nightshade, Solanum ptycanthum), cocklebur (common cocklebur, Xanthium strumarium), cupgrass, woolly (woolly cupgrass, Eriochloa villosa), bermudagrass (Cynodon dactylon), sunflower, (common oilseed sunflower, Helianthus annuus), Russian thistle (Salsola kali) and velvetleaf (Abutilon theophrasti) were planted into a blend of loam soil and sand and treated preemergence with test chemicals formulated in a non-phytotoxic solvent mixture which included a surfactant. At the same time, plants selected from these crop and weed species and also barley (winter barley, Hordeum vulgare), […]), chickweed (common chickweed, Stellaria media), deadnettle (henbit deadnettle, Lamium amplexicaule), and canarygrass (littleseed canarygrass, Phalaris minor) were planted in pots containing Redi-Earth® planting medium (Scotts Company, 14111 Scottslawn Road, Marysville, Ohio 43041) comprising spaghnum peat moss, vermiculite, wetting agent and starter nutrients and treated with postemergence applications of test chemicals formulated in the same manner. Plants ranged in height from 2 to 18 cm (1- to 4-leaf stage) for postemergence treatments. Treated plants and controls were maintained in a greenhouse for 13 to 15 days, after which time all species were compared to controls and visually evaluated. Plant response ratings, summarized in Table C, are based on a scale of 0 to 100 where 0 is no effect and 100 is complete control. A dash (-) response means no test result.

ducksalad = assay: Test C flooded paddy test; type: in vivo, Heteranthera limosa; details: Flood
Summary of the method: as §1

chickweed = assay: Test C postemergence herbicide test; type: in vivo, Stellaria media
From the text: At the same time, plants selected from these crop and weed species and also barley (winter barley, Hordeum vulgare), […]), chickweed (common chickweed, Stellaria media), deadnettle (henbit deadnettle, Lamium amplexicaule), and canarygrass (littleseed canarygrass, Phalaris minor) were planted in pots containing Redi-Earth® planting medium (Scotts Company, 14111 Scottslawn Road, Marysville, Ohio 43041) comprising spaghnum peat moss, vermiculite, wetting agent and starter nutrients and treated with postemergence applications of test chemicals formulated in the same manner. Plants ranged in height from 2 to 18 cm (1- to 4-leaf stage) for postemergence treatments. Treated plants and controls were maintained in a greenhouse for 13 to 15 days, after which time all species were compared to controls and visually evaluated. Plant response ratings, summarized in Table C, are based on a scale of 0 to 100 where 0 is no effect and 100 is complete control. A dash (-) response means no test result.

kochia [2] = assay: Test A pre-/postemergence herbicide test; type: in vivo, Kochia scoparia
Summary of the method: (§2)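 Visual 0–100 ratings (100 = complete control) made about 10 days after treatment, greenhouse-held plants compared with untreated controls. Treatments: postemergence sprays on one- to two-leaf plants (2–10 cm tall) and preemergence directed soil sprays after planting in loam–sand, chemicals formulated in non-phytotoxic solvent containing surfactant.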

ryegrass, Italian = assay: Test A pre-/postemergence herbicide test; type: in vivo, Lolium multiflorum
Summary of the method: as §2

[3] = 62 g ai/ha, scale of 0 to 100 where 0 is no effect and 100 is complete control, 13 to 15 days
[4] = Preemergence, 62 g ai/ha, scale 0 to 100
[5] = Preemergence, 125 g ai/ha, scale 0 to 100 (0 no effect, 100 complete control)
[6] = 31 g ai/ha, scale 0 (no effect) to 100 (complete control)
[7] = 62 g ai/ha, scale 0 to 100 (0 no effect, 100 complete control)
[8] = 125 g ai/ha, scale 0 to 100 (0 no effect, 100 complete control)
[9] = 250 g ai/ha, scale 0 to 100 (0 no effect, 100 complete control)
[10] = Postemergence, 31 g ai/ha, scale 0 (no effect) to 100 (complete control)
[11] = Postemergence, 62 g ai/ha, scale 0 to 100 (0 no effect, 100 complete control)
[12] = Postemergence, 125 g ai/ha, scale 0 to 100 (0 no effect, 100 complete control)
[13] = Postemergence, 250 g ai/ha, scale 0 to 100 (0 no effect, 100 complete control)
[14] = 125 g ai/ha, scale of 0 to 100 where 0 is no effect and 100 is complete control, 13 to 15 days
[15] = Postemergence, 125 g ai/ha, visual rating on 0 to 100 scale (0 no effect, 100 complete control), approx. 10 days
[16] = Postemergence, 500 g ai/ha, 0 to 100 scale (0 no effect, 100 complete control)
[17] = Preemergence, 125 g ai/ha, 0 to 100 scale where 0 is no effect and 100 is complete control
[18] = Preemergence, 500 g ai/ha, visual rating on 0 to 100 scale (0 no effect, 100 complete control)
[19] = 31 g ai/ha, scale of 0 to 100 where 0 is no effect and 100 is complete control, 13 to 15 days
[20] = 250 g ai/ha, scale of 0 to 100 where 0 is no effect and 100 is complete control, 13 to 15 days

Compound	Plant response rating, Sedge, Umbrella (sedge, umbrella; [3])	Plant response rating, Barnyardgrass (barnyardgrass; [3])	Plant response rating, Kochia (kochia [1]; [4])	Plant response rating, Kochia (kochia [1]; [5])	Plant response rating, Ducksalad (ducksalad; [3])	Plant response rating, Chickweed (chickweed; [6])	Plant response rating, Chickweed (chickweed; [7])	Plant response rating, Chickweed (chickweed; [8])	Plant response rating, Kochia (kochia [1]; [10])	Plant response rating, Kochia (kochia [1]; [11])	Plant response rating, Kochia (kochia [1]; [12])	Plant response rating, Sedge, Umbrella (sedge, umbrella; [14])	Plant response rating, Barnyardgrass (barnyardgrass; [14])	Plant response rating, Ducksalad (ducksalad; [14])	Plant response rating, Kochia (kochia [2]; [15])	Plant response rating, Kochia (kochia [2]; [17])	Kochia plant response rating (kochia [2]; [18])	Plant response rating, Ryegrass, Italian (ryegrass, Italian; [15])	Plant response rating, Ryegrass, Italian (ryegrass, Italian; [17])	Ryegrass, Italian plant response rating (ryegrass, Italian; [18])	further results
O=C1NCC(c2ccc(Cl)c(Cl)c2)C1C(=O)Nc1ccccc1F (racemic) [Compound 14]	0	0	0	0	40	–	–	–	–	–	–	–	–	–	–	–	–	–	–	–	Plant response rating, Sedge, Umbrella (sedge, umbrella; 250 g ai/ha, scale 0 to 100): 20; Plant response rating, Barnyardgrass (barnyardgrass; 250 g ai/ha, scale 0 to 100): 0; Plant response rating, Ducksalad (ducksalad; 250 g ai/ha, scale 0 to 100): 85
Cc1c(F)cccc1NC(=O)C1C(=O)NCC1c1ccc(F)c(F)c1 (racemic) [Compound 106]	–	–	–	–	–	0	0	5	0	40	30	–	–	–	–	–	–	–	–	–	Plant response rating, Chickweed (chickweed; [9]): 30; Plant response rating, Kochia (kochia [1]; [13]): 35
O=C1NCCC1C(=O)N(c1ccc(F)c(F)c1)c1ccccc1F (centres unmarked) [Compound 5, N-(3,4-difluorophenyl)-N-(2-fluorophenyl)-2-oxo-3-pyrrolidinecarboxamide]	0	0	0	0	30	–	–	–	–	–	–	0	20	70	–	–	–	–	–	–	Plant response rating, Sedge, Umbrella (sedge, umbrella; 250 g ai/ha, scale 0 to 100): 0; Plant response rating, Barnyardgrass (barnyardgrass; 250 g ai/ha, scale 0 to 100): 55; Plant response rating, Ducksalad (ducksalad; 250 g ai/ha, scale 0 to 100): 80
O=C1NCC(c2cc(F)c(F)c(F)c2)C1C(=O)Nc1cccc(F)c1F (centres unmarked) [Compound 48]	–	–	10	10	–	0	30	30	10	10	20	–	–	–	–	–	–	–	–	–	Plant response rating, Chickweed (chickweed; 16 g ai/ha, scale 0 to 100 (0 no effect, 100 complete control)): 0; Plant response rating, Kochia (kochia [1]; Postemergence, 16 g ai/ha, scale 0 to 100 (0 no effect, 100 complete control)): 0; Plant response rating, Kochia (kochia [1]; Preemergence, 16 g ai/ha, scale 0 to 100): 0
O=C1NCC(c2cc(F)c(F)cc2F)C1C(=O)Nc1cccc(F)c1F (centres unmarked) [Compound 50]	–	–	–	–	–	0	0	0	0	0	0	–	–	–	–	–	–	–	–	–	Plant response rating, Chickweed (chickweed; [9]): 5; Plant response rating, Kochia (kochia [1]; [13]): 0
O=C1NCC(c2ccc(F)c(Cl)c2)C1C(=O)Nc1ccccc1F (centres unmarked) [Compound 60]	–	–	0	0	–	0	10	30	0	10	45	–	–	–	–	–	–	–	–	–	–
O=C1NCC(c2cccc(OC(F)(F)F)c2)C1C(=O)Nc1ccccc1F (centres unmarked) [Compound 69]	–	–	0	0	–	–	–	–	–	–	–	–	–	–	–	–	–	–	–	–	Kochia plant response rating (kochia [1]; Preemergence, 31 g ai/ha, scale 0 to 100, 0 is no effect and 100 is complete control): 0; Plant response rating (scale of 0 to 100), Kochia (kochia [1]; Preemergence, 250 g ai/ha): 25
CN1CC(c2ccc(F)c(F)c2)C(C(=O)Nc2cccc(F)c2F)C1=O (centres unmarked) [Compound 303]	0	20	–	–	60	–	–	–	–	–	–	0	60	70	50	70	80	40	30	40	Plant response rating, Kochia (kochia [2]; [16]): 80; Plant response rating, Ryegrass, Italian (ryegrass, Italian; [16]): 60; Plant response rating, Sedge, Umbrella (sedge, umbrella; [19]): 0; Plant response rating, Sedge, Umbrella (sedge, umbrella; [20]): 0; Plant response rating, Barnyardgrass (barnyardgrass; [19]): 0; Plant response rating, Barnyardgrass (barnyardgrass; [20]): 70; Plant response rating, Ducksalad (ducksalad; [19]): 50; Plant response rating, Ducksalad (ducksalad; [20]): 100
CC(C)c1cccc(C2CNC(=O)C2C(=O)Nc2ccccc2F)c1 (centres unmarked) [Compound 318]	0	30	–	–	60	–	–	–	–	–	–	0	60	100	20	20	70	20	20	60	Plant response rating, Kochia (kochia [2]; [16]): 30; Plant response rating, Ryegrass, Italian (ryegrass, Italian; [16]): 40; Plant response rating, Sedge, Umbrella (sedge, umbrella; [19]): 0; Plant response rating, Sedge, Umbrella (sedge, umbrella; [20]): 0; Plant response rating, Barnyardgrass (barnyardgrass; [19]): 20; Plant response rating, Barnyardgrass (barnyardgrass; [20]): 70; Plant response rating, Ducksalad (ducksalad; [19]): 50; Plant response rating, Ducksalad (ducksalad; [20]): 100
O=C1NCC(c2cccc(OC(F)F)c2)C1C(=O)Nc1ccccc1F (centres unmarked) [Compound 323]	0	45	–	–	75	–	–	–	–	–	–	0	50	90	40	50	80	30	20	30	Plant response rating, Kochia (kochia [2]; [16]): 90; Plant response rating, Ryegrass, Italian (ryegrass, Italian; [16]): 30; Plant response rating, Sedge, Umbrella (sedge, umbrella; [19]): 0; Plant response rating, Sedge, Umbrella (sedge, umbrella; [20]): 0; Plant response rating, Barnyardgrass (barnyardgrass; [19]): 25; Plant response rating, Barnyardgrass (barnyardgrass; [20]): 65; Plant response rating, Ducksalad (ducksalad; [19]): 50; Plant response rating, Ducksalad (ducksalad; [20]): 100
O=C1NCC(c2cccc(C(F)(F)F)c2)C1C(=O)Nc1ccc(F)c(F)c1F (centres unmarked) [Compound 345]	–	–	–	–	–	–	–	–	–	–	–	–	–	–	50	10	80	50	0	40	Plant response rating, Chickweed (chickweed; [9]): 30
